8 compounds from patent US12679832B2, “Compounds and their uses as CD38 inhibitors” (Nanjing Immunophage Biotech Co., Ltd., priority 2021, dated 2026) can be followed below.

Each structure is given as a SMILES string. pIC50: −log10 of the molar value. Structures can show the parent of a compound that is named as a salt. Bounds are passed on as bounds.

The target of the assay is T1, hCD38 Enzyme (Homo sapiens, UniProt P28907).
T1 construct: purchased Sino Biological Inc 10818-H08H
T1 sequence (P28907 43-300 limits assumed): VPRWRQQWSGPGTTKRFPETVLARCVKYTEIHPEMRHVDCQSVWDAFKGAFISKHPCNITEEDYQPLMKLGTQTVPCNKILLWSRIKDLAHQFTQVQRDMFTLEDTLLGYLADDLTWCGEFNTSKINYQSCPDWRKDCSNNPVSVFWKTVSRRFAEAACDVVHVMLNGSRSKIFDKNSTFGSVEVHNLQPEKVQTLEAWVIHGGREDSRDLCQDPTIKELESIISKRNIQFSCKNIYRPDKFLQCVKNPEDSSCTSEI
In words: CD38 hydrolase enzymatic assay. Particulars: rhCD38, ε-NAD substrate, 25° C., point reading time 20 mins; read-out: hCD38 Enzyme inhibition IC50. Type of assay: biochemical.
As usually defined, the pIC50 is −log10 of the IC50, conventionally taken in molar units. Regarding `O=C(Nc1ccncc1)c1cc(C(F)(F)F)cc(-n2ccnc2)n1` [compound 190, 6-(1H-imidazol-1-yl)-N-(pyridin-4-yl)-4-(trifluoromethyl) picolinamide], the pIC50 is 8.55.

As for `CN(C(=O)c1cc(N2CCCCC2)nc(-n2ccnc2)n1)c1cccc(F)c1` [compound 117, N-(3-fluorophenyl)-2-(1H-imidazol-1-yl)-N-methyl-6-(piperidin-1-yl)pyrimidine-4-carboxamide], the pIC50 is < 5.00.

`CO[C@H]1CC[C@H](NC(=O)c2cc(-n3ccnc3)nnc2N)CC1` [compound 10, 3-amino-6-(1H-imidazol-1-yl)-N-((1r,4r)-4-methoxycyclohexyl)pyridazine-4-carboxamide]: the pIC50 is 6.14.

On to `C[C@H]1CC[C@H](NC(=O)c2cc(C(F)(F)F)nc(-n3ccnc3)n2)CC1` [compound 146, 2-(1H-imidazol-1-yl)-N-((1r,4r)-4-methylcyclohexyl)-6-(trifluoromethyl) pyrimidine-4-carboxamide], for which the pIC50 is 7.74.

As to `O=C(NC1CCNCC1)c1cc(C(F)(F)F)nc(-n2ccnc2)n1` [compound 162, 2-(1H-imidazol-1-yl)-N-(piperidin-4-yl)-6-(trifluoromethyl) pyrimidine-4-carboxamide hydrochloride], the pIC50 is < 5.00.

For `CO[C@H]1CC[C@H](NC(=O)c2cc(-n3ccnc3)cnc2N)CC1` [compound 59, 2-amino-5-(1H-imidazol-1-yl)-N-((1r,4r)-4-methoxycyclohexyl) nicotinamide], the pIC50 is < 5.00.

For the compound `O=C(Nc1cccc(F)c1)c1ccc(C(F)(F)F)c(-n2ccnc2)n1` [compound 160, N-(3-fluorophenyl)-6-(1H-imidazol-1-yl)-5-(trifluoromethyl) picolinamide], the pIC50 was 6.50.

Regarding `O=C(Nc1cccnc1)c1cc(C(F)(F)F)cc(-n2ccnc2)n1` [compound 191, 6-(1H-imidazol-1-yl)-N-(pyridin-3-yl)-4-(trifluoromethyl) picolinamide], the pIC50 is 8.42.
